From ChEMBL document CHEMBL4359818, “Targeting dihydrofolate reductase: Design, synthesis and biological evaluation of novel 6-substituted pyrrolo[2,3-d]pyrimidines as nonclassical antifolates and as potential antitumor agents” (Eur J Med Chem, 2019)
Activity calls are given as the source filed them. The calls are words filed in the database; no cut-off is given here.

Tests used:
[1] = system: KB; assay: Inhibition of colony formation in human KB cells at 100 nM after 10 to 14 days by methylene blue staining based assay; format: functional, cell-based
[2] = system: A549; assay: cells; settings: Homo sapiens, A549, 72 h
Description: Antiproliferative activity against human A549 cells assessed as reduction in cell viability after 72 hrs by MTT assay

[3] = system: SW-620; assay: Antiproliferative activity against human SW620 cells assessed as reduction in cell viability after 72 hrs by MTT assay; format: functional, cell-based; settings: SW-620, 72 h
[4] = biological target: T1, Dihydrofolate reductase (Homo sapiens, UniProt P00374); assay: Inhibition of recombinant human DHFR using dihydrofolic acid as substrate in presence of NADPH after 15 mins by microplate reader analysis
T1 sequence (P00374 whole entry): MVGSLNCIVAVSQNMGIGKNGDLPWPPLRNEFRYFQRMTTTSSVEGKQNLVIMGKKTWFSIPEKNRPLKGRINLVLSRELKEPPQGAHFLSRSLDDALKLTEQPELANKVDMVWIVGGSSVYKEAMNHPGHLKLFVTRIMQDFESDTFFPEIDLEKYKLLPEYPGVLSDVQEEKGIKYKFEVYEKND

[5] = system: KB; assay: Antiproliferative activity against human KB cells assessed as reduction in cell viability after 72 hrs by MTT assay; format: functional, cell-based
[6] = system: KB; assay: Cell cycle arrest in human KB cells assessed as accumulation at G2 phase at 10 uM after 96 hrs by RNase-1 A/propidium iodide staining-based flow cytometric analysis (reference value: 9.06%); format: functional
[7] = system: KB; assay: Cell cycle arrest in human KB cells assessed as accumulation at S phase at 10 uM after 96 hrs by RNase-1 A/propidium iodide staining-based flow cytometric analysis (reference value: 48.26%); format: functional
[8] = system: HUVEC; assay: Cytotoxicity against HUVEC assessed as reduction in cell viability after 72 hrs by MTT assay; format: cell-based; settings: Homo sapiens
[9] = system: KB; assay: Antiproliferative activity against human KB cells at 0.01 to 1 uM in presence of AICA; format: functional, cell-based
[10] = system: KB; assay: Antiproliferative activity against human KB cells at 0.01 to 1 uM in presence of adenosine; format: functional, cell-based
[11] = system: KB; assay: Cell cycle arrest in human KB cells assessed as accumulation at G1 phase at 10 uM after 96 hrs by RNase-1 A/propidium iodide staining-based flow cytometric analysis (reference value: 42.69%); format: functional
[12] = Selectivity index, ratio of IC50 for HUVEC to IC50 for human KB cells; format: toxicity; settings: HUVEC and KB cells, read-out: Ratio IC50
[13] = system: KB; assay: Antiproliferative activity against human KB cells at 0.01 to 1 uM in presence of thymidine; format: functional, cell-based
[14] = system: KB; assay: Antiproliferative activity against human KB cells in presence of thymidine; format: functional, cell-based
[15] = system: KB; assay: Antiproliferative activity against human KB cells in presence of AICA and thymidine; format: functional, cell-based
[16] = system: KB; assay: Antiproliferative activity against human KB cells in presence of AICA; format: functional, cell-based
[17] = system: KB; assay: Antiproliferative activity against human KB cells in presence of adenosine; format: functional, cell-based
[18] = system: KB; assay: Potency index, ratio of IC50 for pemetrexed to IC50 for test compound for antiproliferative activity against human KB cells after 72 hrs by MTT assay; format: functional
[19] = system: SW-620; assay: Potency index, ratio of IC50 for pemetrexed to IC50 for test compound for antiproliferative activity against human SW620 cells after 72 hrs by MTT assay; format: functional
[20] = system: A549; assay: Potency index, ratio of IC50 for methotrexate to IC50 for test compound for antiproliferative activity against human A549 cells after 72 hrs by MTT assay; format: functional
[21] = system: A549; assay: Potency index, ratio of IC50 for pemetrexed to IC50 for test compound for antiproliferative activity against human A549 cells after 72 hrs by MTT assay; format: functional
[22] = system: KB; assay: Inhibition of colony formation in human KB cells at 100 nM after 10 to 14 days by methylene blue staining based assay relative to untreated control; format: functional
[23] = system: KB; settings: Homo sapiens, 10 nM
Description: Inhibition of colony formation in human KB cells at 10 nM after 10 to 14 days by methylene blue staining based assay

[24] = biological target: T2, Dihydrofolate reductase (Homo sapiens) (UniProt P00374); assay: Potency index, ratio of IC50 for methotrexate to test compound IC50 for inhibition of recombinant human DHFR
T2 sequence (whole entry): T1 sequence (P00374 whole entry)

Row | SMILES | inhibition [1] | IC50 [2] | IC50 [3] | IC50 [4] | IC50 [5] | Activity [6] | Activity [7] | IC50 [8] | Activity [11] | also measured
1 | Nc1nc2[nH]c(CCNC(=O)c3ccccc3C(=O)NCc3ccccn3)cc2c(=O)[nH]1 | Active | ≥ 1000 nM | ≥ 1000 nM | ≥ 1000 nM | 90.5 nM | – | – | – | – | –
2 | Nc1nc2[nH]c(CCNC(=O)c3ccc(C(=O)NCc4cccnc4)cc3)cc2c(=O)[nH]1 | Active | 12.4 nM | 13.1 nM | 37.9 nM | 11.2 nM | 6.26% | 55.36% | 2970 nM | 38.38% | Activity [9]: Active; Activity [10]: Active; selectivity ratio [12]: 265; Activity [13]: Active
3 | Nc1nc2[nH]cc(CCc3ccc(C(=O)N[C@@H](CCC(=O)O)C(=O)O)cc3)c2c(=O)[nH]1 [PEMETREXED] | Active | – | 80.2 nM | – | – | 0% | 27.89% | 1730 nM | 72.11% | Activity [14]: inactive; Activity [15]: inactive; Activity [16]: inactive; Activity [17]: inactive
4 | Nc1nc2[nH]c(CCNC(=O)c3ccc(C(=O)NCc4ccncc4)cc3)cc2c(=O)[nH]1 | – | 12.1 nM | 15 nM | 49 nM | 10.2 nM | 9.66% | 33.74% | 8830 nM | 56.59% | Ratio IC50 [18]: 7; Ratio IC50 [19]: 7; Activity [9]: Active; Activity [10]: Active; Ratio IC50 [20]: 81; Ratio IC50 [21]: 104; selectivity ratio [12]: 867; Activity [13]: Active; inhibition at 0.1 µM [22]: 80%
5 | CN(Cc1cnc2nc(N)nc(N)c2n1)c1ccc(C(=O)N[C@@H](CCC(=O)O)C(=O)O)cc1 [METHOTREXATE] | – | – | 13.1 nM | – | – | – | – | 6130 nM | – | inhibition [23]: Active
6 | Nc1nc2[nH]c(CCNC(=O)c3ccc(C(=O)NCc4ccccn4)cc3)cc2c(=O)[nH]1 | Active | 18.9 nM | 15.2 nM | 29.3 nM | 23 nM | 9.33% | 24.75% | 5930 nM | 65.92% | Activity [9]: Active; Activity [10]: Active; selectivity ratio [12]: 257; Activity [13]: Active
7 | Nc1nc2[nH]c(CCNC(=O)c3cccc(C(=O)NCc4ccncc4)c3)cc2c(=O)[nH]1 | Active | ≥ 1000 nM | 60.1 nM | 65.9 nM | 25 nM | – | – | – | – | –
8 | Nc1nc2[nH]c(CCNC(=O)c3cccc(C(=O)NCc4ccccn4)c3)cc2c(=O)[nH]1 | Active | ≥ 1000 nM | ≥ 1000 nM | 9.28 nM | 102 nM | – | – | – | – | Ratio IC50 [24]: 2.6
9 | Nc1nc2[nH]c(CCNC(=O)c3ccccc3C(=O)NCc3ccncc3)cc2c(=O)[nH]1 | Active | ≥ 1000 nM | ≥ 1000 nM | ≥ 1000 nM | 89.9 nM | – | – | – | – | –
10 | Nc1nc2[nH]c(CCNC(=O)c3ccccc3C(=O)NCc3cccnc3)cc2c(=O)[nH]1 | Active | ≥ 1000 nM | ≥ 1000 nM | ≥ 1000 nM | 56.5 nM | – | – | – | – | –
11 | Nc1nc2[nH]c(CCNC(=O)c3cccc(C(=O)NCc4cccnc4)c3)cc2c(=O)[nH]1 | Active | ≥ 1000 nM | 154 nM | 53.4 nM | 88.8 nM | – | – | – | – | –
